Measurements taken from ChEMBL document CHEMBL1201862, “PubChem BioAssay data set” (2004).
The source made the active and inactive calls.

Assays:
Type in all cases: functional
[1] = target: Macrophage colony-stimulating factor 1 receptor (Homo sapiens, UniProt P07333);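 further: value comes from the Navigating the Kinome screening panel, CSF1R member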
[2] = target: Tyrosine-protein kinase Fyn (Homo sapiens, UniProt P06241)
[3] = target: Fibroblast growth factor receptor 1 (Homo sapiens, UniProt P11362)
[4] = target: T1, Tyrosine-protein kinase JAK3 (Homo sapiens, UniProt P52333)
T1 sequence (P52333 whole entry): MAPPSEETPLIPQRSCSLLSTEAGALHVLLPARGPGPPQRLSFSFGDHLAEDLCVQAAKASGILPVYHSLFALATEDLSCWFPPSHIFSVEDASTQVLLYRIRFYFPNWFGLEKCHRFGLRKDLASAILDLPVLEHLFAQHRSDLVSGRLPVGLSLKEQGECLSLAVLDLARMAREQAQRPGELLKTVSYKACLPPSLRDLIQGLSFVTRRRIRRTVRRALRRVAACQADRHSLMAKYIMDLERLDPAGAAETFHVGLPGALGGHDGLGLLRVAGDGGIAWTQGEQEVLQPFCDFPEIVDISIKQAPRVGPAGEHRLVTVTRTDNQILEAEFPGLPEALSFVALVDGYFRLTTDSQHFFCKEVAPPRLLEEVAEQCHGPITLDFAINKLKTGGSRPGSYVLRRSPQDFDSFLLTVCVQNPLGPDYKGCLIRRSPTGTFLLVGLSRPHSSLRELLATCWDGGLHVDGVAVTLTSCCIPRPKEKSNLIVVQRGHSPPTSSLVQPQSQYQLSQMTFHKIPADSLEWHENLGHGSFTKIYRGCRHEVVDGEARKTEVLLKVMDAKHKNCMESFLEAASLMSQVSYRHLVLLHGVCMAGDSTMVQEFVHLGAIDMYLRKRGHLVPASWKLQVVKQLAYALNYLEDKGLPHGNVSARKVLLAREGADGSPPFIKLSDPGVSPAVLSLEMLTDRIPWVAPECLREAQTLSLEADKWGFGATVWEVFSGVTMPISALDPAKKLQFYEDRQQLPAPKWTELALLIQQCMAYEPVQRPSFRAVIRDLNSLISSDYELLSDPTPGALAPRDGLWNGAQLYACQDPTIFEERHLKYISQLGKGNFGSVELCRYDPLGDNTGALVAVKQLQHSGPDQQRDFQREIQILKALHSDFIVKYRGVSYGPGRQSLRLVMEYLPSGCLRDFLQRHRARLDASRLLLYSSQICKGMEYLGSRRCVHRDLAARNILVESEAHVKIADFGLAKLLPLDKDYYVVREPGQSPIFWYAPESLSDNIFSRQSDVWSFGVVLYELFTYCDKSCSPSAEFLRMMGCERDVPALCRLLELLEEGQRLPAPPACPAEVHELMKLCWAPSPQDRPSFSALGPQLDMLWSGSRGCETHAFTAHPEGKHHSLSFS

[5] = target: Cyclin-dependent kinase 8 (Homo sapiens, UniProt P49336); test: Navigating the Kinome. Panel member name: CDK8
[6] = target: Cyclin-dependent kinase 5 (Homo sapiens, UniProt Q00535);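 further: CDK5 measured as one member of a kinase profiling panel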
[7] = target: ALK tyrosine kinase receptor (Homo sapiens, UniProt Q9UM73);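 further: ALK tested as one member of a kinase panel screen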
[8] = target: Proto-oncogene tyrosine-protein kinase receptor Ret (Homo sapiens, UniProt P07949);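 further: measured within a kinome-wide profiling panel, RET as the panel member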
[9] = target: Tyrosine-protein kinase BTK (Homo sapiens, UniProt Q06187)
[10] = target: High affinity nerve growth factor receptor (Homo sapiens, UniProt P04629);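 further: NTRK1 tested as one member of a kinome-wide profiling panel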
[11] = target: Leukocyte tyrosine kinase receptor (Homo sapiens, UniProt P29376); test: Navigating the Kinome. Panel member name: LTK
[12] = target: T2, Serine/threonine-protein kinase TBK1 (Homo sapiens, UniProt Q9UHD2); test: Navigating the Kinome. Panel member name: TBK1
T2 sequence (Q9UHD2 whole entry): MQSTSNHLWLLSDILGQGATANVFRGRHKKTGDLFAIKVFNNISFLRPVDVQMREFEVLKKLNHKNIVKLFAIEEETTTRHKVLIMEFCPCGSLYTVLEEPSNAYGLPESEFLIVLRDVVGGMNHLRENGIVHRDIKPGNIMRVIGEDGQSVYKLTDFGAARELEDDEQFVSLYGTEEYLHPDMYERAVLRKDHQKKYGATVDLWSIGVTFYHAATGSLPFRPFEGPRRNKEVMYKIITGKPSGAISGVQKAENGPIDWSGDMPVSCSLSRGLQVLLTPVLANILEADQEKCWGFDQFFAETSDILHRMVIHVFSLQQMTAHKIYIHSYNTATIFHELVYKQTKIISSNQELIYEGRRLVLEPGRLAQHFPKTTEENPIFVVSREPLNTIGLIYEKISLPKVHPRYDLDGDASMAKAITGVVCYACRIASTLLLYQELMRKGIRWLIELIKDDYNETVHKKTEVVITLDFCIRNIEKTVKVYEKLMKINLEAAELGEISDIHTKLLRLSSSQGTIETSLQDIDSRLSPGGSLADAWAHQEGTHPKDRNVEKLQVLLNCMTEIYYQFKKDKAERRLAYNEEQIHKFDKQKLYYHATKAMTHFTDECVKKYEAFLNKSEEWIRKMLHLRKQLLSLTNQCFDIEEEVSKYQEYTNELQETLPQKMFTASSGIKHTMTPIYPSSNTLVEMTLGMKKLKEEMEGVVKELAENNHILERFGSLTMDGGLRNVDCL

[13] = target: Dual specificity protein kinase CLK2 (Homo sapiens, UniProt P49760)
[14] = target: Serine/threonine-protein kinase PAK 4 (Homo sapiens, UniProt O96013);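 further: value obtained within a kinome profiling panel in which PAK4 was one of the panel members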
[15] = target: Dual specificity mitogen-activated protein kinase kinase 2 (Homo sapiens, UniProt P36507); test: Navigating the Kinome. Panel member name: MAP2K2
[16] = target: Dual specificity tyrosine-phosphorylation-regulated kinase 1A (Homo sapiens, UniProt Q13627);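 further: measured against DYRK1A as one member of a broad kinome profiling panel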
[17] = target: G protein-coupled receptor kinase 5 (Homo sapiens, UniProt P34947); test: Navigating the Kinome. Panel member name: GPRK5
[18] = target: Serine/threonine-protein kinase pim-1 (Homo sapiens, UniProt P11309)
[19] = target: Calcium/calmodulin-dependent protein kinase type II subunit alpha (Homo sapiens, UniProt Q9UQM7); test: Navigating the Kinome. Panel member name: CAMK2A
[20] = target: Dual specificity protein kinase CLK4 (Homo sapiens, UniProt Q9HAZ1)
[21] = target: Hepatocyte growth factor receptor (Homo sapiens, UniProt P08581);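 further: kinase panel profiling across the kinome, with MET as the panel member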

Fibroblast growth factor receptor 1, sequence (P11362 whole entry): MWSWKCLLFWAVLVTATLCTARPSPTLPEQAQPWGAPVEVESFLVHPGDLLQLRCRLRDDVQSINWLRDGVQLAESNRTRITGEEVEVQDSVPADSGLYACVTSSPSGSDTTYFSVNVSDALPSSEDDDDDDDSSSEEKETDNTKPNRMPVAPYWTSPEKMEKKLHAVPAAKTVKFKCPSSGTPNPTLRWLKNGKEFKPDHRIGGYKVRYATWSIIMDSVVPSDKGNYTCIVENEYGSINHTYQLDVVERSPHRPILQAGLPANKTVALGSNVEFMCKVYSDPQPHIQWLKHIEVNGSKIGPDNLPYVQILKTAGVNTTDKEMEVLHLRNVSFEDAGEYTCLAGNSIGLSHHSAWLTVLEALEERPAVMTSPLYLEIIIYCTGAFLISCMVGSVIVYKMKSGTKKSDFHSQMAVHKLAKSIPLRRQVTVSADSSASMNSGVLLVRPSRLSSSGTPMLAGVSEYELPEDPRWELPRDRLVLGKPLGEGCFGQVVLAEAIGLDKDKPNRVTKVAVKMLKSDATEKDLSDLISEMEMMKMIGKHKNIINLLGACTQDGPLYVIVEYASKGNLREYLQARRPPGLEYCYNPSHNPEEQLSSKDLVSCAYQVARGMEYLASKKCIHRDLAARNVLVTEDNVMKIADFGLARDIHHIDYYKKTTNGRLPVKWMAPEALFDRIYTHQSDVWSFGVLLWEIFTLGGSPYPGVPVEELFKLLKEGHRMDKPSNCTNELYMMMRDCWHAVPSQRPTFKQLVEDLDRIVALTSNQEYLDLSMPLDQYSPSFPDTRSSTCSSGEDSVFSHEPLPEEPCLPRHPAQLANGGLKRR
Tyrosine-protein kinase Fyn, sequence (P06241 whole entry): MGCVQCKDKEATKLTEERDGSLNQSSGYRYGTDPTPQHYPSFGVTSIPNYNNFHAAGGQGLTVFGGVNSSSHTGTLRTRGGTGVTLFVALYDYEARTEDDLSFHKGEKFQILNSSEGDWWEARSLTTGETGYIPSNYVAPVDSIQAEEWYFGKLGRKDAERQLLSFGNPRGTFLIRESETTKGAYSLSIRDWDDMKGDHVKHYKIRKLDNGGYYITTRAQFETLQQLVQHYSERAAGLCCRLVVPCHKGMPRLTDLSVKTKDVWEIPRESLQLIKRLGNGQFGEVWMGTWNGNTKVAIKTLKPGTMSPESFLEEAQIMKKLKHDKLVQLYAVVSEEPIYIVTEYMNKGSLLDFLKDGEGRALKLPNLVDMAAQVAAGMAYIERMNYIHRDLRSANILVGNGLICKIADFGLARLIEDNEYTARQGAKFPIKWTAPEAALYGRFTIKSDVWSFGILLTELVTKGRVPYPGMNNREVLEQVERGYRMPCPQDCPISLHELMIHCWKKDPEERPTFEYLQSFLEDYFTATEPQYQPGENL
Cyclin-dependent kinase 5, sequence (Q00535 whole entry): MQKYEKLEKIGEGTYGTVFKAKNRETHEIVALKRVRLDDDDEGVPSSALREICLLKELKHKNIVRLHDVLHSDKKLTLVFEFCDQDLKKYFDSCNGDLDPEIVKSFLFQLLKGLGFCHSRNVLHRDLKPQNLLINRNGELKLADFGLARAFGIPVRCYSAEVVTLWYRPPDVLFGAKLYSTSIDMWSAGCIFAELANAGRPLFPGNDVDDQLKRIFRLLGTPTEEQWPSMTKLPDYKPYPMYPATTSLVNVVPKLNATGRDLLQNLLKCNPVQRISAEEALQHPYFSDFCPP
Serine/threonine-protein kinase pim-1, sequence (P11309 whole entry): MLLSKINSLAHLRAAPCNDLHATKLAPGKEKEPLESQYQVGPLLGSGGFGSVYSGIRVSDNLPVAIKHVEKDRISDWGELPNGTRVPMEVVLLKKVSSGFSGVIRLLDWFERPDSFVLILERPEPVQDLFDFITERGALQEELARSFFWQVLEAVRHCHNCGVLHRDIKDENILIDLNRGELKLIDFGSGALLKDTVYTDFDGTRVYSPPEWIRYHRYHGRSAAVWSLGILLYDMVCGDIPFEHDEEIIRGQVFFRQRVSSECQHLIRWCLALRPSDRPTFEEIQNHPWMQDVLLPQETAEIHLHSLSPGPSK
Cyclin-dependent kinase 8, sequence (P49336 whole entry): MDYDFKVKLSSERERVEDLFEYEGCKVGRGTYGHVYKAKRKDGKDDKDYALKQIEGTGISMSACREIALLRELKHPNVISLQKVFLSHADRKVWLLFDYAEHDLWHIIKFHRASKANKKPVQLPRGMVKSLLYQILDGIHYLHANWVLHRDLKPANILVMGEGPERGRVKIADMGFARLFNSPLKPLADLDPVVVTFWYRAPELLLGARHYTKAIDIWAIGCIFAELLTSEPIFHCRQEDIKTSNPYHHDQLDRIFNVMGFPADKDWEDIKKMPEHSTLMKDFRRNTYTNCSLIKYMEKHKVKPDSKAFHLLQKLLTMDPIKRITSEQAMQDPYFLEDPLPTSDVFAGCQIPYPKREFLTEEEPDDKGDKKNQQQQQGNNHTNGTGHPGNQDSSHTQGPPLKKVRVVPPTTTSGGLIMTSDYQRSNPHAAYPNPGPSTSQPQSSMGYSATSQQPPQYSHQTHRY
High affinity nerve growth factor receptor, sequence (P04629 whole entry): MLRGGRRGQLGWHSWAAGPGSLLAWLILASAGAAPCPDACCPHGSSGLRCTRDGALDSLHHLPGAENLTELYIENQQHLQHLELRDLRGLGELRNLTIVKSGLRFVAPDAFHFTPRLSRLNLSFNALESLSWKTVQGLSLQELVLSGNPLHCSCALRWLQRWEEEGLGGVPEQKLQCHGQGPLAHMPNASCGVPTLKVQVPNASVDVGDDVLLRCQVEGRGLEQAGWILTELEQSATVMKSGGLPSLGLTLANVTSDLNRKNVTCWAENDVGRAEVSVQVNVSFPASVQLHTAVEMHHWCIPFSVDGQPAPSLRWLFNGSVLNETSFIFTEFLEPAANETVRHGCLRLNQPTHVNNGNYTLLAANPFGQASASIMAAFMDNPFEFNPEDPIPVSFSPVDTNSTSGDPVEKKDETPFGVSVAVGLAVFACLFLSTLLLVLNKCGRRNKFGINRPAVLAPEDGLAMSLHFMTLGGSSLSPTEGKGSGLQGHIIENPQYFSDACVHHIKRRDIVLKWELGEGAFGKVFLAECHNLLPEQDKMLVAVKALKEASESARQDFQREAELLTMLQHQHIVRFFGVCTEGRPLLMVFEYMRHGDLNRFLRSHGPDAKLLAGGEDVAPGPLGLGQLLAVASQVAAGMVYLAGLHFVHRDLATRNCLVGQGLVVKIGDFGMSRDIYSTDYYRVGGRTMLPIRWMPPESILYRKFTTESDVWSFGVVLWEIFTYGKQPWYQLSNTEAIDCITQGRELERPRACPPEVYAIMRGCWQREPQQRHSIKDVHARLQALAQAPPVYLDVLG
Macrophage colony-stimulating factor 1 receptor, sequence (P07333 whole entry): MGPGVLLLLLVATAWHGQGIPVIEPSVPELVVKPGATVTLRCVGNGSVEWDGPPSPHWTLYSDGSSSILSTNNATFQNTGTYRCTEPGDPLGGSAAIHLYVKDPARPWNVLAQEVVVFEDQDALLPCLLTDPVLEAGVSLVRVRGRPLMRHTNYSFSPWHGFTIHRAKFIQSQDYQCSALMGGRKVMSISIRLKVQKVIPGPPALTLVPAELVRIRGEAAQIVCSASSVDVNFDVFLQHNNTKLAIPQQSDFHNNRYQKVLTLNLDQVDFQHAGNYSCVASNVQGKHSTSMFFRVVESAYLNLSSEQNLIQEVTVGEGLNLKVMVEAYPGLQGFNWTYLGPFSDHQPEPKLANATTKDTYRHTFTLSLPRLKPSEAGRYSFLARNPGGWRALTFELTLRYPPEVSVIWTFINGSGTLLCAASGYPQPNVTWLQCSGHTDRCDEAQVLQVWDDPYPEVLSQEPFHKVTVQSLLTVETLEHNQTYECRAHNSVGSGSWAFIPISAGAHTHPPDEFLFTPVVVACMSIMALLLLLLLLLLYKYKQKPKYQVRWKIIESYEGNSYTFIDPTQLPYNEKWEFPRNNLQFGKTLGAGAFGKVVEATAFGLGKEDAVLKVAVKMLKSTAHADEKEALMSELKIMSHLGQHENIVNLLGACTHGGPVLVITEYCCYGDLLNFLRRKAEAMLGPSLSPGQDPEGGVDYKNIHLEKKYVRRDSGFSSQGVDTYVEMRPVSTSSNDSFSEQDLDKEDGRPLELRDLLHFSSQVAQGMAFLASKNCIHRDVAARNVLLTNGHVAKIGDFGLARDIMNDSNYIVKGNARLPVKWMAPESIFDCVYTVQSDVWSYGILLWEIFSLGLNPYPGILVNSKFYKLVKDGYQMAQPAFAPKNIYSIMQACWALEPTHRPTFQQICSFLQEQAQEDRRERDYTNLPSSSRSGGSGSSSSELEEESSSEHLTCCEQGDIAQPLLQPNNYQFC
Tyrosine-protein kinase BTK, sequence (Q06187 whole entry): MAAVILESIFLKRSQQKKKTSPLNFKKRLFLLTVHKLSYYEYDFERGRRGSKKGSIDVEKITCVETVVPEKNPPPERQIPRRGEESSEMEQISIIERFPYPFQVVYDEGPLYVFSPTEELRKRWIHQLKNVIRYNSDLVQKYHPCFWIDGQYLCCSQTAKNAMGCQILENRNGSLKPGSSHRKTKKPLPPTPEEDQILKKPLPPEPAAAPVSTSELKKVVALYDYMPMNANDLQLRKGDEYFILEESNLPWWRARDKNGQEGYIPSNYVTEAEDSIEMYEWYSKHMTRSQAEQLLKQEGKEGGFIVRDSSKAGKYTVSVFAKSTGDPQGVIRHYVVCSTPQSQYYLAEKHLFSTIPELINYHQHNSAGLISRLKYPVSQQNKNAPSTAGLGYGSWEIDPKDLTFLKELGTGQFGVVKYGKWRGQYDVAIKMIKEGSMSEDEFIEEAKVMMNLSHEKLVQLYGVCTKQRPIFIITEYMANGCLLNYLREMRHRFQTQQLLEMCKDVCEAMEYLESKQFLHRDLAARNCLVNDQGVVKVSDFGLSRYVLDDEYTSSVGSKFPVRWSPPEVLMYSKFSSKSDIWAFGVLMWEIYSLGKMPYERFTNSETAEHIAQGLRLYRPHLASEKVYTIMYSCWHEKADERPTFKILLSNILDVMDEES

SMILES: COc1cccc(C(C)NC(=O)c2sc(-c3ccncc3)nc2C)c1 (stereo not drawn)
- Ki [1]: > 2.51 µM (inactive)
- Ki [2]: > 6.31 µM (inactive)
- Ki [3]: > 3.98 µM (inactive)
- Ki [4]: > 5.01 µM (inactive)
- Ki [5]: > 3.98 µM (inactive)
- Ki [6]: > 3.16 µM (inactive)
- Ki [7]: > 6.31 µM (inactive)
- Ki [8]: > 3.16 µM (inactive)
- Ki [9]: > 6.31 µM (inactive)
- Ki [10]: > 3.16 µM (inactive)
- Ki [11]: > 2.51 µM (inactive)
- Ki [12]: > 3.16 µM (inactive)
- Ki [13]: > 3.98 µM (inactive)
- Ki [14]: > 5.01 µM (inactive)
- Ki [15]: > 3.98 µM (inactive)
- Ki [16]: > 2 µM (inactive)
- Ki [17]: > 3.98 µM (inactive)
- Ki [18]: > 6.31 µM (inactive)
- Ki [19]: > 3.98 µM (inactive)
- Ki [20]: > 2.51 µM (inactive)
- Ki [21]: > 2.51 µM (inactive)

SMILES: CCCCC(=O)Nc1cc(-c2c[nH]c3ncccc23)cc(Cl)n1
- Ki [1]: > 2.51 µM (inactive)
- Ki [2]: > 6.31 µM (inactive)
- Ki [3]: > 3.98 µM (inactive)
- Ki [4]: > 5.01 µM (inactive)
- Ki [5]: 0.0158 µM (active)
- Ki [6]: 1 µM (active)
- Ki [7]: > 6.31 µM (inactive)
- Ki [8]: > 3.16 µM (inactive)
- Ki [9]: > 6.31 µM (inactive)
- Ki [10]: > 3.16 µM (inactive)
- Ki [11]: > 2.51 µM (inactive)
- Ki [12]: > 3.16 µM (inactive)
- Ki [13]: 1.58 µM (active)
- Ki [14]: > 5.01 µM (inactive)
- Ki [15]: > 3.98 µM (inactive)
- Ki [16]: 0.0398 µM (active)
- Ki [17]: > 3.98 µM (inactive)
- Ki [18]: > 6.31 µM (inactive)
- Ki [19]: > 7.94 µM (inactive)
- Ki [20]: 0.0126 µM (active)
- Ki [21]: > 2.51 µM (inactive)

SMILES: Oc1ccc(-c2nc(-c3ccncc3)c(-c3ccc(F)cc3)[nH]2)cc1 [SB-202190]
- Ki [1]: > 2 µM (inactive)
- Ki [2]: > 6.31 µM (inactive)
- Ki [3]: > 3.98 µM (inactive)
- Ki [4]: > 5.01 µM (inactive)
- Ki [5]: > 3.98 µM (inactive)
- Ki [6]: > 3.16 µM (inactive)
- Ki [7]: > 6.31 µM (inactive)
- Ki [8]: > 3.16 µM (inactive)
- Ki [9]: > 6.31 µM (inactive)
- Ki [10]: > 3.16 µM (inactive)
- Ki [11]: > 1.58 µM (inactive)
- Ki [12]: > 3.16 µM (inactive)
- Ki [13]: > 3.98 µM (inactive)
- Ki [14]: > 5.01 µM (inactive)
- Ki [15]: > 3.98 µM (inactive)
- Ki [16]: > 2 µM (inactive)
- Ki [17]: > 3.98 µM (inactive)
- Ki [18]: > 6.31 µM (inactive)
- Ki [19]: > 3.98 µM (inactive)
- Ki [20]: 2.51 µM (active)
- Ki [21]: > 2.51 µM (inactive)
